{"source": "PubChem BioAssay AID2060513", "about": "(Molecular Pharmacology Branch, DTP, NCI, 2025);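 also: spheroids exposed to the agents for seven days before readout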;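 as to viability, T/C: percent viability relative to DMSO vehicle control wells = 100%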", "system": "299254-011-R-J1-PDC complex spheroids viability", "test": "Anticancer human tumor 299254-011-R-J1-PDC patient-derived melanoma cell line growth inhibition [GQUAD]", "settings": "for IC50: curve of first compound; for viability, T/C: stronger effect = lower value", "method_in_brief": "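Viability of tumor cells grown as complex spheroids with endothelial and stromal cells, exposed to drug combinations. Top concentration at or near clinical Cmax (else 10 microM), diluted in half-log increments.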", "data": [{"smiles": "CC(C)(O)C1CCC(Nc2ccc3ncc(-c4cccc(C(F)(F)F)c4)n3n2)CC1", "note": "(configuration not stated) + Cc1[nH]c2ccc(F)cc2c1-c1nc2c3cccnc3c3ncccc3c2[nH]1", "values": [{"measurement": "IC50", "setting": "second compound 0.0316 µM", "value": "> 10", "unit": "µM"}, {"measurement": "IC50", "setting": "second compound 0.1 µM", "value": "> 10", "unit": "µM"}, {"measurement": "IC50", "setting": "second compound 0.316 µM", "value": "> 10", "unit": "µM"}, {"measurement": "IC50", "setting": "second compound 1 µM", "value": "> 10", "unit": "µM"}, {"measurement": "IC50", "setting": "second compound 3.16 µM", "value": "> 10", "unit": "µM"}, {"measurement": "IC50", "setting": "second compound 10 µM", "value": 2.55, "unit": "µM"}, {"measurement": "viability, T/C", "setting": "second compound 0.0316 µM, first compound 0.0316 µM", "value": 112, "unit": "%"}, {"measurement": "viability, T/C", "setting": "second compound 0.0316 µM, first compound 0.1 µM", "value": 109, "unit": "%"}, {"measurement": "viability, T/C", "setting": "second compound 0.0316 µM, first compound 0.316 µM", "value": 124, "unit": "%"}, {"measurement": "viability, T/C", "setting": "second compound 0.0316 µM, first compound 1 µM", "value": 97.2, "unit": "%"}, {"measurement": "viability, T/C", "setting": "second compound 0.0316 µM, first compound 3.16 µM", "value": 70.1, "unit": "%"}, {"measurement": "viability, T/C", "setting": "second compound 0.0316 µM, first compound 10 µM", "value": 111, "unit": "%"}, {"measurement": "viability, T/C", "setting": "second compound 0.1 µM, first compound 0.0316 µM", "value": 115, "unit": "%"}, {"measurement": "viability, T/C", "setting": "second compound 0.1 µM, first compound 0.1 µM", "value": 98.2, "unit": "%"}, {"measurement": "viability, T/C", "setting": "second compound 0.1 µM, first compound 0.316 µM", "value": 93.5, "unit": "%"}, {"measurement": "viability, T/C", "setting": "second compound 0.1 µM, first compound 1 µM", "value": 103, "unit": "%"}, {"measurement": "viability, T/C", "setting": "second compound 0.1 µM, first compound 3.16 µM", "value": 73.4, "unit": "%"}, {"measurement": "viability, T/C", "setting": "second compound 0.1 µM, first compound 10 µM", "value": 111, "unit": "%"}, {"measurement": "viability, T/C", "setting": "second compound 0.316 µM, first compound 0.0316 µM", "value": 108, "unit": "%"}, {"measurement": "viability, T/C", "setting": "second compound 0.316 µM, first compound 0.1 µM", "value": 117, "unit": "%"}, {"measurement": "viability, T/C", "setting": "second compound 0.316 µM, first compound 0.316 µM", "value": 115, "unit": "%"}, {"measurement": "viability, T/C", "setting": "second compound 0.316 µM, first compound 1 µM", "value": 109, "unit": "%"}, {"measurement": "viability, T/C", "setting": "second compound 0.316 µM, first compound 3.16 µM", "value": 82.7, "unit": "%"}, {"measurement": "viability, T/C", "setting": "second compound 0.316 µM, first compound 10 µM", "value": 99.4, "unit": "%"}, {"measurement": "viability, T/C", "setting": "second compound 1 µM, first compound 0.0316 µM", "value": 85.2, "unit": "%"}, {"measurement": "viability, T/C", "setting": "second compound 1 µM, first compound 0.1 µM", "value": 109, "unit": "%"}, {"measurement": "viability, T/C", "setting": "second compound 1 µM, first compound 0.316 µM", "value": 110, "unit": "%"}, {"measurement": "viability, T/C", "setting": "second compound 1 µM, first compound 1 µM", "value": 104, "unit": "%"}, {"measurement": "viability, T/C", "setting": "second compound 1 µM, first compound 3.16 µM", "value": 68.2, "unit": "%"}, {"measurement": "viability, T/C", "setting": "second compound 1 µM, first compound 10 µM", "value": 105, "unit": "%"}, {"measurement": "viability, T/C", "setting": "second compound 3.16 µM, first compound 0.0316 µM", "value": 93, "unit": "%"}, {"measurement": "viability, T/C", "setting": "second compound 3.16 µM, first compound 0.1 µM", "value": 102, "unit": "%"}, {"measurement": "viability, T/C", "setting": "second compound 3.16 µM, first compound 0.316 µM", "value": 97, "unit": "%"}, {"measurement": "viability, T/C", "setting": "second compound 3.16 µM, first compound 1 µM", "value": 88, "unit": "%"}, {"measurement": "viability, T/C", "setting": "second compound 3.16 µM, first compound 3.16 µM", "value": 51, "unit": "%"}, {"measurement": "viability, T/C", "setting": "second compound 3.16 µM, first compound 10 µM", "value": 65.3, "unit": "%"}, {"measurement": "viability, T/C", "setting": "second compound 10 µM, first compound 0.0316 µM", "value": 105, "unit": "%"}, {"measurement": "viability, T/C", "setting": "second compound 10 µM, first compound 0.1 µM", "value": 95.9, "unit": "%"}, {"measurement": "viability, T/C", "setting": "second compound 10 µM, first compound 0.316 µM", "value": 103, "unit": "%"}, {"measurement": "viability, T/C", "setting": "second compound 10 µM, first compound 1 µM", "value": 88, "unit": "%"}, {"measurement": "viability, T/C", "setting": "second compound 10 µM, first compound 3.16 µM", "value": 35.1, "unit": "%"}, {"measurement": "viability, T/C", "setting": "second compound 10 µM, first compound 10 µM", "value": 47.6, "unit": "%"}]}]}
